Test results published in ChEMBL document CHEMBL5390237, “Discovery of Selective Histone Deacetylase 1 and 2 Inhibitors: Screening of a Focused Library Constructed by Click Chemistry, Kinetic Binding Analysis, and Biological Evaluation” (J Med Chem, 2023).
The source made the active and inactive calls. The rule behind the calls is not given here.

Experiments:
MCF7 [1] = assay: Upregulation of TES gene expression in human MCF7 cells at 2 uM incubated for 24 hrs by RT-qPCR analysis; assay type: functional, cell-based
[2] = biological target: Histone deacetylase 5 (Homo sapiens) (UniProt Q9UQL6); assay: Inhibition of recombinant human HDAC5 using fluorogenic substrate preincubated for 3 hrs followed by substrate addition and measured after 30 mins by fluorescence analysis; settings: time 3.5 hrs
Histone deacetylase 2 [3] = biological target: T1, Histone deacetylase 2 (Homo sapiens, UniProt Q92769); assay: Inhibition of full-length recombinant human C-terminal GST tagged HDAC2 expressed in Sf9 insect cells assessed as second order […] rate constant (k2) using Ac-LGK(Ac)-AMC substrate and measured for 60 mins at 2 mins interval by fluorescence analysis
MCF7 [4] = assay: Upregulation of DDIT4 gene expression in human MCF7 cells at 2 uM incubated for 24 hrs by RT-qPCR analysis; assay type: functional, cell-based
N2a = assay: Induction of neurite outgrowth in mouse Neuro2a cells assessed as percentage of neurite-bearing cells at 20 to 2000 nM incubated for 48 hrs by microscopy; assay type: functional, cell-based; settings: dose 20-2000 nM
MCF7 [5] = assay: Downregulation of E2F7 gene expression in human MCF7 cells at 2 uM incubated for 24 hrs by microarray analysis; assay type: functional, cell-based
MCF7 [6] = assay: Downregulation of E2F1 gene expression in human MCF7 cells at 2 uM incubated for 24 hrs by microarray analysis; assay type: functional, cell-based
[7] = biological target: T2, Histone deacetylase (Homo sapiens) (UniProt Q13547+O15379+Q9UBN7+Q92769+Q9UQL6+Q8WUI4+Q9BY41+Q96DB2+P56524+Q9UKV0+Q969S8); settings: MCF7, dose 1.0 µM, time <= 48.0 hrs
MCF7 [8] = assay: Upregulation of TP53INP1 gene expression in human MCF7 cells at 2 uM incubated for 24 hrs by RT-qPCR analysis; assay type: functional, cell-based
Histone deacetylase 1 = Histone deacetylase 1 (Homo sapiens, UniProt Q13547); assay: Inhibition of full-length recombinant human C-terminal GST tagged HDAC1 expressed in Sf9 insect cells using aminoluciferin peptide substrate at 10 to 100 nM preincubated for 3 hrs followed by substrate addition and measured after 30 mins by HDAC-Glo I/II chemiluminescence assay; settings: dose 10-100 nM, time 3.5 hrs
[9] = biological target: T3, Histone deacetylase 7 (Homo sapiens) (UniProt Q8WUI4); assay: Inhibition of recombinant human HDAC7 using fluorogenic substrate preincubated for 3 hrs followed by substrate addition and measured after 30 mins by fluorescence analysis; settings: time 3.5 hrs
T3 sequence (whole entry): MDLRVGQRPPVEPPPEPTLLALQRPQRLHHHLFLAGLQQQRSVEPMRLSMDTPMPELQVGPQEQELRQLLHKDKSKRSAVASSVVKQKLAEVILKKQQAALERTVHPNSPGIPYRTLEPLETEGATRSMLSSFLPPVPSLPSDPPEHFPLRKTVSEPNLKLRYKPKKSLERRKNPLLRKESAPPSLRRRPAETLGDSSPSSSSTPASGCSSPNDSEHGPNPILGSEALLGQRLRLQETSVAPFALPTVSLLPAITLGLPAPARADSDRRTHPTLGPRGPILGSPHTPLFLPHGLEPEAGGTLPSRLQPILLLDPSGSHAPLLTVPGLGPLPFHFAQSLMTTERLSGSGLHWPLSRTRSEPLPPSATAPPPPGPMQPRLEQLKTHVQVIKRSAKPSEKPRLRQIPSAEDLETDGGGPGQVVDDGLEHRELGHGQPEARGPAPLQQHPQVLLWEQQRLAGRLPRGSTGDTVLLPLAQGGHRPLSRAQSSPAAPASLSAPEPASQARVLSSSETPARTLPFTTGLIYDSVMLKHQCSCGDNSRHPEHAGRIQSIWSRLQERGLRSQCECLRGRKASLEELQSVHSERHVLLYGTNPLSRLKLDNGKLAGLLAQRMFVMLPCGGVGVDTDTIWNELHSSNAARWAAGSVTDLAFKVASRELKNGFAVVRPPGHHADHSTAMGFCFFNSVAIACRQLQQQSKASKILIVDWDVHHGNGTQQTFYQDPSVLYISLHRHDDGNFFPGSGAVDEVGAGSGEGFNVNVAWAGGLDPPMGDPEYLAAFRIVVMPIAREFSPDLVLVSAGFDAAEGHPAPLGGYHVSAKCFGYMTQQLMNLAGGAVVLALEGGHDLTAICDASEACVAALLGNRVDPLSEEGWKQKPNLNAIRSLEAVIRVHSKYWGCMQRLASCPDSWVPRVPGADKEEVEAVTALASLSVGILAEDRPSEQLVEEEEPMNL

[10] = biological target: T2, Histone deacetylase (Homo sapiens); settings: MCF7, dose 10.0 µM, time <= 48.0 hrs
Histone deacetylase 2 [11] = biological target: T1, Histone deacetylase 2; assay: Inhibition of full-length recombinant human C-terminal GST tagged HDAC2 expressed in Sf9 insect cells assessed as second order dissociation rate constant (k-2) using Ac-LGK(Ac)-AMC substrate and measured for 60 mins at 2 mins interval by fluorescence analysis
Mus musculus = assay: Neuroprotective activity in BALB/c mouse assessed as increase in spine density in granule neuron dendrites at 1 uM,SCi administered through osmotic minipumps incubated for 48 hrs by bright-field microscopy; assay type: functional, organism-based
Histone deacetylase 2 [12] = biological target: T1, Histone deacetylase 2; settings: Sf9, time 60.0 min
Histone deacetylase 2 [13] = biological target: T1, Histone deacetylase 2; settings: Sf9, time 60.0 min; remark: listed apart in the source

Sequence of Histone deacetylase 5 (Homo sapiens) (Q9UQL6 whole entry): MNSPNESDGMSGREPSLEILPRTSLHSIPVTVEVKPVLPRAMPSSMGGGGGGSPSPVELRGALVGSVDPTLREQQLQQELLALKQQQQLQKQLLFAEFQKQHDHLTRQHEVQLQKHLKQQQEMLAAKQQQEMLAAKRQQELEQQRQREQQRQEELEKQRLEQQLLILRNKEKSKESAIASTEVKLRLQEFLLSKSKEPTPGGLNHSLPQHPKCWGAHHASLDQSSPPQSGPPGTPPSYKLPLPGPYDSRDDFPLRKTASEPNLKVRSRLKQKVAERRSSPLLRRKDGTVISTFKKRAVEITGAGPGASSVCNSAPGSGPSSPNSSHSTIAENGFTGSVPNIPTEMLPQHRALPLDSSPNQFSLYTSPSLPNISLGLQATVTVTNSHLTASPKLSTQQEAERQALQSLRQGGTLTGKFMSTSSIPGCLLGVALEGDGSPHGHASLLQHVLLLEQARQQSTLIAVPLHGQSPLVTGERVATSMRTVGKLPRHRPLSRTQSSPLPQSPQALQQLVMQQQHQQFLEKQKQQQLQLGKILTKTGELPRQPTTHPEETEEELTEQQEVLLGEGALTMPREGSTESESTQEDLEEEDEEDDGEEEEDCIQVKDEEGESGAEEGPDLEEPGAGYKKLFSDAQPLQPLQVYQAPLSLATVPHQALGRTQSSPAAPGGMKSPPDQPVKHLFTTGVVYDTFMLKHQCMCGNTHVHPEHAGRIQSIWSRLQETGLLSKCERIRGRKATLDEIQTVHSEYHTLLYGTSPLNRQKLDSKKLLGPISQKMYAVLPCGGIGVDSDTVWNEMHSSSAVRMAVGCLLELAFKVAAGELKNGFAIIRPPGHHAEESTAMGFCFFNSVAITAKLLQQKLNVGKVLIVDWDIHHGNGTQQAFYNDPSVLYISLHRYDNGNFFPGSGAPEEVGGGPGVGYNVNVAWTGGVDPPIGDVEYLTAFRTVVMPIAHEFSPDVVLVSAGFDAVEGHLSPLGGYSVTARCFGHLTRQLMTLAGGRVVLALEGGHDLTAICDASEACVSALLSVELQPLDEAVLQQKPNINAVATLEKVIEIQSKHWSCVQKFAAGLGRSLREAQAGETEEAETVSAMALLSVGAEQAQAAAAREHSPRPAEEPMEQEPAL
T1 sequence (Q92769 whole entry): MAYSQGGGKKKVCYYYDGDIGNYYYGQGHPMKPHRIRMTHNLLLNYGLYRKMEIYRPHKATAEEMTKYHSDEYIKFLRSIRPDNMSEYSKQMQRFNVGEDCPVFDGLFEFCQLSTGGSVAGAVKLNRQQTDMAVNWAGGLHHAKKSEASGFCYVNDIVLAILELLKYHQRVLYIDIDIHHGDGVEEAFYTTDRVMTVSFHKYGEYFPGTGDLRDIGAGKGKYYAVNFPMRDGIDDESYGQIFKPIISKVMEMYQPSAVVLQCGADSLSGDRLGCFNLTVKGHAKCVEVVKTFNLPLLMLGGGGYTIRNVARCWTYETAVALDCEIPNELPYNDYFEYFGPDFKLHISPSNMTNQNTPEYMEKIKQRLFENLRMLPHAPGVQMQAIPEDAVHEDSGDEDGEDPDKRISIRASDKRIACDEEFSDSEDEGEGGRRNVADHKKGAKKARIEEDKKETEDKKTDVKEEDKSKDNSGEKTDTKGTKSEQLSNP
Sequence of Histone deacetylase 1 (Q13547 whole entry): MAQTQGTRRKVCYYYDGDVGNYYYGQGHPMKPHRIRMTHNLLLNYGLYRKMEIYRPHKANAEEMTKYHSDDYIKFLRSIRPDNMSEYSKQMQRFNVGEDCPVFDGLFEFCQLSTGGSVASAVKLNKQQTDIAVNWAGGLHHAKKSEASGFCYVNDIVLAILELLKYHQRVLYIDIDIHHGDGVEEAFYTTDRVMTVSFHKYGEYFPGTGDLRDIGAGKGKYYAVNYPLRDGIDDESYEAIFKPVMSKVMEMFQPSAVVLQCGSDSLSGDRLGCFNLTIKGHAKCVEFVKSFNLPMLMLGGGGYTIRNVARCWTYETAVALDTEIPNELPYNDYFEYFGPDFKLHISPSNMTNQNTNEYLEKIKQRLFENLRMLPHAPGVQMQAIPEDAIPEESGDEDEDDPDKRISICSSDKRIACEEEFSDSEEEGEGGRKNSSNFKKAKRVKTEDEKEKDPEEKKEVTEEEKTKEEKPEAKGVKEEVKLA

Row | Compound | Activity (MCF7 [1]) | inhibition [2] | ka (Histone deacetylase 2 [3]) | Activity (MCF7 [4]) | Activity (N2a) | Activity (MCF7 [5]) | Activity (MCF7 [6]) | TDI [7] | Activity (MCF7 [8]) | inhibition (Histone deacetylase 1) | inhibition [9] | TDI [10] | Kdiss (Histone deacetylase 2 [11]) | Activity (Mus musculus) | Kdiss (Histone deacetylase 2 [12]) | ka (Histone deacetylase 2 [13])
1 | Nc1ccc(-c2cccs2)cc1NC(=O)c1ccc(-c2cn(CS(=O)(=O)c3ccccc3)nn2)cc1 | Active | inactive | 683 M⁻¹ s⁻¹ | Active | Active | Active | Active | Active | Active | Active | inactive | Active | 3.33e-05 s⁻¹ | Active | – | –
2 | Nc1ccc(-c2cccs2)cc1NC(=O)c1ccc(-c2cn(C[S+]([O-])c3ccccc3)nn2)cc1 (stereo not drawn) | Active | inactive | – | Active | – | Active | Active | Active | Active | Active | inactive | Active | – | – | 0.000117 s⁻¹ | 5330 M⁻¹ s⁻¹
3 | Nc1ccc(-c2cccs2)cc1NC(=O)c1ccc(-c2cn(CCc3ccccn3)nn2)cc1 | Active | inactive | – | Active | – | Active | Active | Active | Active | Active | inactive | Active | – | – | 8.33e-05 s⁻¹ | 8830 M⁻¹ s⁻¹
